From patent US9884048B2, “ERK inhibitors” (Merck Sharp & Dohme Corp., priority 2014, dated 2018) come the findings set out here.

As usually defined, the IC50 is the point on the concentration scale where inhibition reaches its midpoint.

The test addresses phosphorylated active hERK2 enzyme (Homo sapiens (Human), UniProt P28482).
Where [1] appears, read: read-out: ERK2 IC50, IMAP-FP assay, 0.5 nM hERK2, 30 μM ATP, 10 point titration, 3 μM starting concentration.

Where two headings read alike, the source gives them in different places.

phosphorylated active hERK2 enzyme, sequence (P28482 whole entry): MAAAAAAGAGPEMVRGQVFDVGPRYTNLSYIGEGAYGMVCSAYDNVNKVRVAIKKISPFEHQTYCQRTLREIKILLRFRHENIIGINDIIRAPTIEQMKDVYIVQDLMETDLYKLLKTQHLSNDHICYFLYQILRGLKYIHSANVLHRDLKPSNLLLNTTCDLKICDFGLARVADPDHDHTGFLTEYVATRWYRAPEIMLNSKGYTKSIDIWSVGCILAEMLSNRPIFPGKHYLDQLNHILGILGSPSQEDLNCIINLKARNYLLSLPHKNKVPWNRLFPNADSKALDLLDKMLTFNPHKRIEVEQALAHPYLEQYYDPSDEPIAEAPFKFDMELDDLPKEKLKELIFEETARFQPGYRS

Regarding `C[C@@H](NC(=O)Nc1cc2cnn(C3CCCC3)c2c(CO)n1)c1ccccc1` [Example 307, 1-[1-cyclopentyl-7-(hydroxymethyl)-1H-pyrazolo[3,4-c]pyridin-5-yl]-3-[(1R)-1-phenylethyl]urea], the IC50 under setting [1] came to 125 nM.
On the same count and under the same terms, in the case of `C[C@@H](NC(=O)Nc1cc2cnn(CC3CC3)c2c(CO)n1)c1ccccc1` [Example 308, 1-[1-(cyclopropylmethyl)-7-(hydroxymethyl)-1H-pyrazolo[3,4-c]pyridin-5-yl]-3-[(1R)-1-phenylethyl]urea] it was 79.5 nM.
In turn, `C[C@@H](NC(=O)Nc1cc2cnn(CC3CCOCC3)c2c(CO)n1)c1ccccc1` [Example 309, 1-[7-(hydroxymethyl)-1-(tetrahydro-2H-pyran-4-ylmethyl)-1H-pyrazolo[3,4-c]pyridin-5-yl]-3-[(1R)-1-phenylethyl]urea] displayed an IC50 of 285 nM.
In the case of `C[C@@H](NC(=O)Nc1cc2cnn(CCO)c2c(CO)n1)c1ccccc1` [Example 310, 1-[1-(2-hydroxyethyl)-7-(hydroxymethyl)-1H-pyrazolo[3,4-c]pyridin-5-yl]-3-[(1R)-1-phenylethyl]urea], under setting [1], the IC50 amounted to 160 nM.
Turning to `C[C@@H](NC(=O)Nc1cc2cnn(CC3CCOC3)c2c(CO)n1)c1ccccc1` (stereo partly drawn) [Example 311, 1-[7-(hydroxymethyl)-1-(tetra-hydrofuran-3-ylmethyl)-1H-pyrazolo[3,4-c]pyridin-5-yl]-3-[(1R)-1-phenylethyl]urea], the IC50 under setting [1] is 158 nM.
Turning to `COCCn1ncc2cc(NC(=O)N[C@H](C)c3ccccc3)nc(CO)c21` [Example 312, 1-[7-(hydroxymethyl)-1-(2-methoxyethyl)-1H-pyrazolo[3,4-c]pyridin-5-yl]-3-[(1R)-1-phenylethyl]urea], the concentration for half-maximal inhibition (IC50) under setting [1] came out at 296 nM.
Consider `C[C@@H](NC(=O)Nc1cc2cnn(C3CCCCC3)c2c(CO)n1)c1ccccc1` [Example 313, 1-[1-cyclohexyl-7-(hydroxymethyl)-1H-pyrazolo[3,4-c]pyridin-5-yl]-3-[(1R)-1-phenylethyl]urea], for which the IC50 under setting [1] is 49.1 nM.
Turning to `C[C@@H](NC(=O)Nc1cc2cnn(CC(F)(F)F)c2c(CO)n1)c1ccccc1` [Example 314, 1-[7-(hydroxymethyl)-1-(2,2,2-trifluoroethyl)-1H-pyrazolo[3,4-c]pyridin-5-yl]-3-[(1R)-1-phenylethyl]urea], the IC50 under setting [1] was 175 nM.
For the compound `C[C@@H](NC(=O)Nc1cc2cnn(CC3COC3)c2c(CO)n1)c1ccccc1` [Example 315, 1-[7-(hydroxymethyl)-1-(oxetan-3-ylmethyl)-1H-pyrazolo[3,4-c]pyridin-5-yl]-3-[(1R)-1-phenylethyl]urea], the IC50 under setting [1] was 143 nM.
As for `C[C@@H](NC(=O)Nc1cc2cnn(C3CCOCC3)c2c(CO)n1)c1ccccc1` [Example 316, 1-[7-(hydroxymethyl)-1-(tetra-hydro-2H-pyran-4-yl)-1H-pyra-- zolo[3,4-c]pyridin-5-yl]-3-[(1R)-1-phenylethyl]urea], under setting [1], the half-maximal inhibitory concentration (IC50) amounted to 236 nM.
On the same count and under the same terms, the result for `CC(C)(O)[C@@H](NC(=O)Nc1cc2cnn(-c3ncc4c(n3)CNCC4)c2cn1)c1ccc(F)cc1` [Example 317, 1-[(1S)-1-(4-fluorophenyl)-2-hydroxy-2-methylpropyl]-3-[1-(5,6,7,8-tetrahydropyrido[3,4-d]pyrimidin-2-yl)-1H-pyrazolo[3,4-c]pyridin-5-yl]urea] reads 327 nM; that for `COCCNCc1nc(NC(=O)N[C@H](C)c2ccccc2)cc2cnn(-c3ccc(F)cc3)c12` [Example 318, 1-[1-(4-Fluorophenyl)-7-{[(2-methoxyethyl)amino]methyl}-1H-pyrazolo[3,4-c]pyridin-5-yl]-3-[(1R)-1-phenylethyl]urea], 141 nM.
The same measure, in the same setting: the result for `C[C@@H](NC(=O)Nc1cc2cnn(-c3ccc(F)cc3)c2c(CN)n1)c1ccccc1` [Example 319, 1-[7-(aminomethyl)-1-(4-fluorophenyl)-1H-pyrazolo[3,4-c]pyridin-5-yl]-3-[(1R)-1-phenylethyl]urea] reads 516 nM.
`C[C@@H](NC(=O)Nc1cc2cnn(-c3ccc(F)cc3)c2c(CNCCN(C)C)n1)c1ccccc1` [Example 320, 1-[7-({[2-(dimethylamino)ethyl]amino}methyl)-1-(4-fluorophenyl)-1H-pyrazolo[3,4-c]pyridin-5-yl]-3-[(1R)-1-phenylethyl]urea]: the IC50 under setting [1] came to 1240 nM.
On to `COCCNCc1nc(NC(=O)N[C@H](C)c2ccccc2)cc2cnn(-c3ccnc(C)c3)c12` [Example 321, 1-[7-{[(2-methoxyethyl)amino]methyl}-1-(2-methylpyridin-4-yl)-1H-pyrazolo[3,4-c]pyridin-5-yl]-3-[(1R)-1-phenylethyl]urea], for which, under setting [1], the IC50 worked out at 103 nM.
On the same count and under the same terms, in the case of `Cc1cc(-n2ncc3cc(NC(=O)N[C@H](C)c4ccccc4)nc(CNCCN(C)C)c32)ccn1` [Example 322, 1-[7-({[2-(dimethylamino)ethyl]amino}methyl)-1-(2-methylpyridin-4-yl)-1H-pyrazolo[3,4-c]pyridin-5-yl]-3-[(1R)-1-phenylethyl]urea] it was 86.6 nM; in that of `C[C@@H](NC(=O)Nc1cc2cnn(CCC#N)c2c(CO)n1)c1ccccc1` [Example 323, 1-[1-(2-Cyanoethyl)-7-(hydroxymethyl)-1H-pyrazolo[3,4-c]pyridin-5-yl]-3-[(R)-1-phenylethyl]urea], 110 nM; in that of `C=CC(=O)NCc1nc(NC(=O)N[C@H](C)c2ccccc2)cc2cnn(C)c12` [Example 324, N-{[1-Methyl-5-({[(1R)-1-phenylethyl]carbamoyl}amino)-1H-pyrazolo[3,4-c]pyridin-7-yl]methyl}prop-2-enamide], 432 nM.
As to `CC(=O)NCc1nc(NC(=O)N[C@H](C)c2ccccc2)cc2cnn(-c3ccc(F)cc3)c12` [Example 325, N-{[1-(4-fluorophenyl)-5-({[(1R)-1-phenylethyl]carbamoyl}amino)-1H-pyrazolo[3,4-c]pyridin-7-yl]methyl}acetamide], the 50% inhibitory concentration (IC50) under setting [1] came out at 289 nM.
Regarding `COC(=O)NCc1nc(NC(=O)N[C@H](C)c2ccccc2)cc2cnn(-c3ccc(F)cc3)c12` [Example 326, Methyl {[1-(4-fluorophenyl)-5-({[(1R)-1-phenylethyl]carbamoyl}amino)-1H-pyrazolo[3,4-c]pyridin-7-yl]methyl}carbamate], the half-maximal inhibitory concentration (IC50) under setting [1] worked out at 17.6 nM.
For `CCNC(=O)OCc1nc(NC(=O)N[C@H](C)c2ccccc2)cc2cnn(-c3ccc(F)cc3)c12` [Example 327, [1-(4-Fluorophenyl)-5-({[(1R)-1-phenylethyl]carbamoyl}amino)-1H-pyrazolo[3,4-c]pyridin-7-yl]methyl ethylcarbamate], the half-inhibitory concentration (IC50) under setting [1] came to 116 nM.
Take `C=CC(=O)NC[C@@H](NC(=O)Nc1cc2cnn(C)c2cn1)c1ccccc1` [Example 328, N-[(2S)-2-{[(1-Methyl-1H-pyrazolo[3,4-c]pyridin-5-yl)carbamoyl]amino}-2-phenylethyl]prop-2-enamide]: under setting [1], the IC50 stood at 796 nM.
The same measure, in the same setting: the result for `C=CC(=O)NCCc1nc(NC(=O)N[C@H](C)c2ccccc2)cc2cnn(C)c12` [Example 329, N-{2-[1-Methyl-5-({[(1R)-1-phenylethyl]carbamoyl}amino)-1H-pyrazolo[3,4-c]pyridin-7-yl]ethyl}prop-2-enamide] reads 563 nM.
